Key:
HUVECs [1] = assay: Apoptotic nuclei in HUVECs, H&E staining; assay type: cell-based, human; details: 24 hours
Protocol: After a 24-hour incubation period, cells were fixed and stained with Hematoxylin and Eosin (H&E). Five high-powered fields (400×) were observed and counted for each experimental group.

HUVECs [2] = assay: Clonogenic survival of HUVECs; assay type: cell-based, human; details: SU11248 prior to irradiation compared to radiation alone (p<0.05)
tumor vasculature = assay: Tumor vascular length density, intravital tumor vascular window; assay type: in vivo, mice
Protocol: Tumor vascular linear density was measured by use of intravital tumor vascular window. […] Five mice were treated in each of the treatment groups, and the vascular length density after treatment was quantified.

tumor endothelial cells = assay: TUNEL staining of treated tumor sections; assay type: in vivo
LLC tumors [3] = assay: Tumor growth delay, LLC hind limb tumors; assay type: in vivo, mice
Excerpt: As disclosed herein, the induction of apoptosis correlated with the biological response in tumor blood vessels and tumor growth delay. […] Both the inhibitor and radiation were discontinued after day 8. […] Time to doubling of LLC tumor size was 5, 6, 8, and 16 days for each group, respectively.

LLC tumors [4] = assay: Tumor growth delay with SU11248, LLC tumors; assay type: in vivo, nude mice; details: drug alone
Protocol: (§1) D54 and LLC tumors were implanted into both hind limbs of nude mice as described in Example 2. Tumors were grown over the course of seven to 10 days.
(§2) In comparison, LLC tumors responded to SU11248 alone or in combination with radiation.

D54 tumors = assay: Tumor growth delay with SU11248, D54 tumors; assay type: in vivo, nude mice; details: SU11248 alone
Protocol: as §1, §2

[5] = system: A431, Colo205, H460, C6 and SF763T tumors; details: regression, growth arrest or growth delay of xenografts; cited from earlier work

SMILES: CCN(CC)CCNC(=O)c1c(C)[nH]c(/C=C2\C(=O)Nc3ccc(F)cc32)c1C [SU11248]
- Percentage of endothelial cells with apoptotic nuclei (HUVECs [1]; 100 nM SU11248 alone): 7%
- Percentage of endothelial cells with apoptotic nuclei (HUVECs [1]; 100 nM SU11248 followed by 6 Gy): 21%
- Clonogenic survival (HUVECs [2]): significant reduction in clonogenic survival
- Vascular length density (VLD) in tumors (tumor vasculature; SU11248 40 mg/kg followed by 3 Gy, within 72 hours): 8 % of that at 0 hours
- Vascular length density (VLD) in tumors (tumor vasculature; SU11248 alone): 84 % that of 0 hour
- Threshold radiation dose for induction of apoptosis (tumor endothelial cells; SU11248 administered prior to irradiation, tumor endothelium): 2 Gy
- TUNEL staining of tumor sections (tumor endothelial cells; SU11248 alone): no TUNEL staining
- TUNEL staining of tumor sections (tumor endothelial cells; SU11248 followed by 3 Gy, co-localization with vWF): positive TUNEL staining in endothelial cells
- Time to doubling of LLC tumor size (LLC tumors [3]; SU11248 40 mg/kg i.p. 30 minutes before each 3 Gy dose (21 Gy total)): 16 days
- Time to doubling of LLC tumor size (LLC tumors [3]; SU11248 40 mg/kg i.p. daily, seven administrations, alone): 6 days
- Tumor growth delay (LLC tumors [4]): showed a tumor growth delay
- Tumor growth delay (D54 tumors): did not show tumor growth delay
- Anti-tumor activity in mice [5]: broad and potent anti-tumor activity

Reference: patent publication US20100135905A1, “ASSESSMENT OF CANCER SUSCEPTIBILITY TO MOLECULAR TARGETED THERAPY BY USE OF RECOMBINANT PEPTIDES” (priority 2004, published 2010)
